Measured values as given in patent US9629863B2, “CDK5 inhibitors and therapeutic uses thereof” (The Hong Kong University of Science and Technology, priority 2009, dated 2017).

Tests used:
[1] = target: Cdk5 (Homo sapiens, UniProt Q00535); conditions: reported elsewhere, controls; cited from earlier work
[2] = target: Cdk5/p25 (Homo sapiens, UniProt Q00535); assay: FRET-based Z'-LYTE Cdk5 kinase assay, Cdk5/p25; format: biochemical; conditions: for inhibition at 30 µM: compound 30 μM, 30 ng/ml Cdk5/p25, FIG. 3; for IC50: Cdk5/p25, Table 1; for inhibition at 200 µM: Cdk5/p25, at 200 μM; for mode of inhibition on Cdk5/p25 complex: 0.5, 1, 2 and 4 μM, increasing ATP, FIG. 11; for inhibitory effect on Cdk5/p25: FIG. 8-10, in words; for inhibition at 80 µM: Cdk5/p25, at 80 μM
Sequence of Cdk5/p25 (Q00535 whole entry, species assumed): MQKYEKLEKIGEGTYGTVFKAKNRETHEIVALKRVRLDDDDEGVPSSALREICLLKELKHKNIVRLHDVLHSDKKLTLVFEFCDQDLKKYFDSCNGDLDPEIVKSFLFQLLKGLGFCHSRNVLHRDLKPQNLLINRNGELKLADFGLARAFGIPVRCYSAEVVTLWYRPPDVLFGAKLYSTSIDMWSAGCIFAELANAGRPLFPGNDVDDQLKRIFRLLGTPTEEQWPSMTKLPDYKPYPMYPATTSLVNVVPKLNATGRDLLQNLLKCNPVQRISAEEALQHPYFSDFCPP
Sequence of Cdk5/p25 (Q15078 99-307 partner limits assumed, species assumed): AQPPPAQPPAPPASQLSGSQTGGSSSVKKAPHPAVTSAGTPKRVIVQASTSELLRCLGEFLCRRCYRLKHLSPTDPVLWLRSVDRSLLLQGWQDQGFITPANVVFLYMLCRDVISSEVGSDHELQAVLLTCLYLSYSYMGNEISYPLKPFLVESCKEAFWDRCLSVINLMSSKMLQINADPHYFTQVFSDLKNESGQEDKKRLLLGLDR
Experimental: (§1) Cdk5 kinase assay was performed as described in the instruction manual (Invitrogen, cat. no. PV3673). This assay employs a FRET-based, coupled-enzyme format and is based on the differential sensitivity of phosphorylated and non-phosphorylated peptides to proteolytic cleavage. The assay uses a synthetic peptide substrate (the Z′-LYTE™ peptide substrate) that is labeled with a donor fluorophore (coumarin) and an acceptor fluorophore (fluorescein) to make up a FRET pair. In the primary reaction, Cdk5 transfers the γ-phosphate of ATP to a serine/threonine residue on the substrate, while the presence of a kinase inhibitor in the primary reaction suppresses phosphorylation. […] Cleavage disrupts FRET between the donor and acceptor fluorophores on the non-phosphorylated substrate, while uncleaved phosphorylated substrate maintains FRET. The effectiveness of the compounds on inhibiting the Cdk5 activity is then measured by calculating the emission ratio.
(§2) The plate was then incubated for one hour at room temperature. Development solution was then added in the dark for another hour. […] To calculate the activity of cdk5/p25 and Cdk5/p35, Z′-LYTE phosphopeptide was used as a 100% phosphorylation control while nonphosphorylated Z′-LYTE peptide is used as a 0% phosphorylation control to establish the maximal and minimal emission ratio values which enable to calculate the percentage of kinase phosphorylation. To determine the inhibitory effect on cdk5 activity, fractions and compounds to be tested were included in the kinase reaction. Zero inhibition was determined by using DMSO (solvent) instead of the compounds in the reaction. […] Assays were done in quadruplicates and data was averaged from at least 4 independent experiments. Similar experimental protocols were performed for Cdk1/cyclin B and Cdk2/cyclin A kinase activity study. Activity of each kinase complex was evaluated by titration, and the resultant value of EC30 was used in the inhibitory study. Since activity of kinase complexes varies with different batches of preparation, EC30 will be determined in each new batch of kinases. […] Kinetic studies of compounds were performed by Cdk5/p25 kinase assays with various concentrations of ATP and tested compounds. The kinetic parameters were determined by a nonlinear least-squares program using GraphPad Prism 5 software.
(§3) Using the FRET-based Cdk5 kinase assay method described above, the compounds of the present invention were examined for their inhibitory effects on Cdk5 kinase activity. The amount of Cdk5/25 and Cdk5/p35 used for screening Cdk5 inhibitors is EC30 of the kinase complex and the EC30 was determined with a titration study of kinase complex. The effectiveness of the compounds on inhibiting Cdk5 activity was then measured by comparing the percent phosphorylation of peptide substrates by Cdk5 kinase in the presence of test compounds and percent phosphorylation of peptide substrates by Cdk5 without test compounds.
Seven natural compounds isolated from Rhodiola rosea (F199) were selected for IC50 and maximal inhibition determination. Various concentrations of the F199 compounds were incubated with Cdk5/p25. The effectiveness of the compounds on inhibiting Cdk5 activity was then calculated by comparing the percent phosphorylation of peptide substrates by Cdk5/p25 in the presence of test compounds and percent phosphorylation of peptide substrates by Cdk5/p25 without test compounds.

[3] = target: Cdk5/p35 (Homo sapiens, UniProt Q00535); assay: FRET-based Z'-LYTE Cdk5 kinase assay, Cdk5/p35; format: biochemical; conditions: for inhibition at 30 µM: compound 30 μM, 30 ng/ml Cdk5/p35, FIG. 3; for inhibitory effect on Cdk5/p35: FIG. 8-10, in words
Sequence of Cdk5/p35 (Q00535 whole entry, species assumed): as the sequence (Q00535 whole entry, species assumed) above
Sequence of Cdk5/p35 (Q15078 whole entry partner, species assumed): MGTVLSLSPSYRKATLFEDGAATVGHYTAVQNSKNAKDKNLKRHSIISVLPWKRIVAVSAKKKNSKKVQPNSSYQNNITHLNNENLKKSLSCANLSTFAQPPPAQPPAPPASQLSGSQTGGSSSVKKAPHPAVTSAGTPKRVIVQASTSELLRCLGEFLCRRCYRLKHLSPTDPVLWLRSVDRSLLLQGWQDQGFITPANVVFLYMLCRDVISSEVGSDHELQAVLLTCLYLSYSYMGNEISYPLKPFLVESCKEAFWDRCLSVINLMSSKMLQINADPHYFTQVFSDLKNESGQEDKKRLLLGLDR
Experimental: as §1, §2, §3

[4] = test system: rat cortical neurons; assay: Aβ assay (MTT) in cortical neurons; format: cell-based; conditions: about 30 and 50 μM, Aβ25-35 10 μM, vs DMSO control
Experimental: Embryonic rat cortical neurons (7 DIV) were pre-treated with various concentrations of compounds (3-50 μM) and then co-incubated with Aβ25-35 (10 μM). After overnight incubation, the MTT assay was performed. Cell survival was calculated as a percentage compared to the vehicle control (DMSO). Assays were conducted in duplicates and data were compared with student-t test. *=P<0.05.
Cortical neurons at 7 DIV in culture isolated from embryonic day 18 rats were used as cell models in the assay. Toxicity caused by Aβ25-35 peptide in these cells was evaluated by MTT detection after […]. The Aβ assay was performed to investigate the ability of the invention to protect cortical neurons from cell death induced by exogenous Aβ25-35 peptide addition. Assays were done in duplicates and data was averaged from at least 3 independent experiments.
Exogenous addition of Aβ initiates cell death of neuronal cultures via apoptosis. The MTT assay, a well-known cell death assay, was performed to study the ability of the compounds of the present invention to prevent Aβ-induced excitotoxicity in primary cortical neuronal cells. Embryonic rat cortical neurons (7 DIV) were pre-treated with various concentrations of the compounds (3-50 μM) and then co-incubated with Aβ25-35 (10 μM). After overnight incubation, the MTT assay was performed. Cell survival was calculated as a percentage compared to the vehicle control (DMSO). Assays were conducted in duplicates and data were analyzed with student-t test. *=P<0.05. The results of exemplary compounds, F199-C6, F199-C34 and F199-C22 are presented in FIG. 5, FIG. 6 and FIG. 7, respectively.

[5] = target: Cdk1/cyclin B (Homo sapiens, UniProt P06493); assay: Z'-LYTE kinase assay, Cdk1/cyclin B; format: biochemical; conditions: FIG. 8-10, in words
Sequence of Cdk1/cyclin B (P06493 whole entry, species assumed): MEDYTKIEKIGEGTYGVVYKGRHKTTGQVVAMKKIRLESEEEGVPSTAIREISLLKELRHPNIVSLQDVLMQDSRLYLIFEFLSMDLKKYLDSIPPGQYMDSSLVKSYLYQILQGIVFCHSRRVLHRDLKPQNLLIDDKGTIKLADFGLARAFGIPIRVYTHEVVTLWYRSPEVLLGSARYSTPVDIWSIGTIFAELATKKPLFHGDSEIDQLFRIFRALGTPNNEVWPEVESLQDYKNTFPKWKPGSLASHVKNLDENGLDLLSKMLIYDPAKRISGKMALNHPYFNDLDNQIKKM
Sequence of Cdk1/cyclin B (P14635 whole entry partner, species assumed): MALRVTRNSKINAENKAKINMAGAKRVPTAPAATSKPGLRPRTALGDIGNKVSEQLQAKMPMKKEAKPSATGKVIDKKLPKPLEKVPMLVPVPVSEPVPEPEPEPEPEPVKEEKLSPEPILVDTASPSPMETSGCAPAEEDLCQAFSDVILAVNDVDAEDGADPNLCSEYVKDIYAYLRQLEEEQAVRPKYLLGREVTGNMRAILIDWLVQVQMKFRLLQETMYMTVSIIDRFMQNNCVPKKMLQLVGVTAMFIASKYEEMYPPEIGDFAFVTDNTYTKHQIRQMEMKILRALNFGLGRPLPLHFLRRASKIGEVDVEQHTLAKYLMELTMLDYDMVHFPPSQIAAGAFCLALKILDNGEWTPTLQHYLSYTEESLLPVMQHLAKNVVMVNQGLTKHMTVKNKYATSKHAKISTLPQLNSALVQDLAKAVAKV
Experimental: (§4) Cdk5 kinase assay was performed by adding Z′-LYTE™ peptide substrate and ATP together with Cdk5/p25 or Cdk5/p35 kinase solution in a 384-well black polystyrene plate (Corning 3676). The plate was then incubated for one hour at room temperature. Development solution was then added in the dark for another hour. Finally, stop solution was added and the coumarin and fluorescein emission signals were measured on a fluorescence plate reader (Tecan, infinite F500) (excitation: 400 nm, emission 445 and […], respectively). To calculate the activity of cdk5/p25 and Cdk5/p35, Z′-LYTE phosphopeptide was used as a 100% phosphorylation control while nonphosphorylated Z′-LYTE peptide is used as a 0% phosphorylation control to establish the maximal and minimal emission ratio values which enable to calculate the percentage of kinase phosphorylation. To determine the inhibitory effect on cdk5 activity, fractions and compounds to be tested were included in the kinase reaction. Zero inhibition was determined by using DMSO (solvent) instead of the compounds in the reaction. […]. Assays were done in quadruplicates and data was averaged from at least 4 independent experiments. Similar experimental protocols were performed for Cdk1/cyclin B and Cdk2/cyclin A kinase activity study. Activity of each kinase complex was evaluated by titration, and the resultant value of EC30 was used in the inhibitory study. Since activity of kinase complexes varies with different batches of preparation, EC30 will be determined in each new batch of kinases. […] Kinetic studies of compounds were performed by Cdk5/p25 kinase assays with various concentrations of ATP and tested compounds. The kinetic parameters were determined by a nonlinear least-squares program using GraphPad Prism 5 software.

[6] = target: Cdk2/cyclin A (Homo sapiens, UniProt P24941); assay: Z'-LYTE kinase assay, Cdk2/cyclin A; format: biochemical; conditions: FIG. 8-10, in words
Experimental: as §4

[7] = test system: formalin-induced pain; assay: Animal model of pain (formalin paw-licking); format: in vivo, mice
Experimental: Adult ICR mice (6-8 week-old) habituated in the experimental room for 3 days before the testing. Testing was conducted from 9 am to 3 pm. Mice were randomly grouped and weighed. Mice were pretreated with a single dose of F199-C16 (10-100 mg/kg, intraperitoneal injection) and then injected with 10 μl of 2.5% formalin in the subplantar of the right hind paw. The licking time (in seconds) was recorded during 0-10 minutes (early phase) and in 11-40 minutes (late phase) after formalin injection. The whole process was monitored and recorded by a digital monochrome video camera. Data were expressed as the mean±SEM. (*p<0.05; ANOVA, with Student-Newman Keuls test).
The effect of F199-C16 was examined in an animal model of pain. The pain was induced by injecting formalin into the paw of the mouse.

Sequence of Cdk5 (Q00535 whole entry, species assumed): as the sequence (Q00535 whole entry, species assumed) above
Sequence of Cdk5 (Q15078 whole entry partner, species assumed): as the sequence (Q15078 whole entry partner, species assumed) above

| SMILES | inhibition at 30 µM [2] [%] | inhibition at 30 µM [3] [%] | IC50 [2] [µM] | inhibition at 200 µM ([2]; read-out: Maximum inhibition) [%] | inhibitory effect on Cdk1/cyclin B [5] | inhibitory effect on Cdk2/cyclin A [6] | inhibitory effect on Cdk5/p25 [2] | inhibitory effect on Cdk5/p35 [3] | neuronal cell survival against Aβ toxicity [4] | other results |
| --- | --- | --- | --- | --- | --- | --- | --- | --- | --- | --- |
| CC[C@H](CC[C@@H](C)[C@H]1CC[C@H]2[C@@H]3CC=C4C[C@@H](O[C@@H]5O[C@H](CO)[C@@H](O)[C@H](O)[C@H]5O)CC[C@]4(C)[C@H]3CC[C@]12C)C(C)C [Compound F199-C1, daucosterol, reference compound] | < 25 | < 25 | – | – | – | – | – | – | – | reported inhibition of Cdk5 activity [1]: moderately inhibit Cdk5 activity |
| O=c1c(O)c(-c2ccc(O)cc2)oc2cc(O)cc(O)c12 [Compound F199-C2, kaempferol] | – | – | – | – | – | – | – | – | – | reported inhibition of Cdk5 activity [1]: moderately inhibit Cdk5 activity |
| O=C(O)c1cc(O)c(O)c(O)c1 [Compound F199-C4, gallic acid] | 25 to 50 | 25 to 50 | 40.6 | 64.2 | – | – | – | – | – | – |
| O=c1c(O)c(-c2ccc(O)cc2)oc2c(OC3OCC(O)C(O)C3O)c(O)cc(O)c12 (stereo not shown) [Compound F199-C6, rhodalin] | 25 to 50 | 25 to 50 | 34.4 | 56.6 | – | – | – | – | significantly promoted neuronal cell survival | – |
| COc1ccc(-c2oc3c(O)c(O)cc(O)c3c(=O)c2O)cc1 [Compound F199-C23, 4′-methoxyherbacetin] | 50 to 75 | 50 to 75 | 1.21 | – | inhibited similarly | minimal | inhibited similarly | inhibited similarly | – | mode of inhibition on Cdk5/p25 complex [2]: mixed inhibition; inhibition at 20 µM ([2]; Cdk5/p25, at 20 μM, read-out: Maximum inhibition): 45% |
| O=C(O[C@@H]1Cc2c(O)cc(O)cc2O[C@@H]1c1cc(O)c(O)c(O)c1)c1cc(O)c(O)c(O)c1 [Compound F199-C35, epigallocatechin-3-gallate] | – | – | 14.7 | – | – | – | – | – | – | – |

Further lines, with some results ahead:

| inhibition at 30 µM [2] [%] | inhibition at 30 µM [3] [%] | IC50 [2] [µM] | inhibition at 200 µM ([2]; read-out: Maximum inhibition) [%] | inhibitory effect on Cdk1/cyclin B [5] | inhibitory effect on Cdk2/cyclin A [6] | inhibitory effect on Cdk5/p25 [2] | inhibitory effect on Cdk5/p35 [3] | SMILES | neuronal cell survival against Aβ toxicity [4] | other results |
| --- | --- | --- | --- | --- | --- | --- | --- | --- | --- | --- |
| 50 to 75 | 50 to 75 | 3.24 | 87.5 | potently | minimal | milder inhibition | milder inhibition | CC1OC(Oc2c(O)cc(O)c3c(=O)c(O)c(-c4ccc(O)cc4)oc23)C(O)C(O)C1O (stereo not shown) [Compound F199-C16, litvinolin] | – | licking time, early phase (0-10 min) ([7]; 100 mg/kg i.p.): significantly reduced the licking time; licking time, late phase (11-40 min) ([7]; 100 mg/kg i.p.): significantly reduced the licking time; licking time of right hind paw ([7]; 10-100 mg/kg i.p., single dose, formalin): reduced the licking time of right hind paw in a dose-dependent manner; mode of inhibition on Cdk5/p25 complex [2]: mixed inhibition |
| < 25 | < 25 | 20.1 | – | – | – | – | – | O=C(OCC1OC(OC/C=C/c2ccccc2)C(O)C(O)C1O)c1cc(O)c(O)c(O)c1 (stereo not shown) [Compound F199-C22, 6-O-galloyl rosin] | significantly promoted neuronal cell survival | inhibition at 80 µM ([2]; read-out: Maximum inhibition): 46.5% |
| 50 to 75 | 50 to 75 | 5.63 | – | less effect | less effect | potent inhibitory effect | less effect | O=C(OCC1OC(Oc2ccc(O)cc2)C(O)C(O)C1O)c1cc(O)c(O)c(O)c1 (stereo not shown) [Compound F199-C34, 6-O-galloyl arbutin] | significantly promoted neuronal cell survival | inhibition at 80 µM ([2]; read-out: Maximum inhibition): 70% |
